Results: patent publication US12636385B2, “Selective ligands for tau aggregates” (Sentonix, Inc., priority 2018, dated 2026)

Assays:
[1] = target: T1, 0N4R Tau fibrils (Homo sapiens, UniProt P10636); test: ^3H-THK5117 competition binding to tau fibrils in vitro; conditions: for IC50: 3 nM [^3H]-THK5117, recombinant 0N4R tau fibrils, average if run more than once; for Selectivity for tau relative to Aβ: calculated from [^3H]-THK5117 tau and [^3H]-AZD2184 Aβ assays
T1 construct: made in house
Method: Preparation of recombinant 0N4R Tau fibrils was performed as previously described in Morozova, O. A., Biochemistry (2013), Vol., 52(40), pages 6960-6967. Competition binding experiments to 0N4R Tau fibrils were performed by incubating increasing concentrations [10^−10-10^−6 M] of the Example compounds of the invention, or the known tau specific ligand PBB3 (PBB3 was synthesized as previously described in M. Maruyama, et al, Neuron 2013, 79, 1094-1108) or MK6240 (Novandi Chemistry AB), in the presence of 3 nM of the known tau ligand [^3H]-THK5117 (Novandi Chemistry) and 0.2 mM 0N4R tau fibrils in binding buffer (50 mM Tris-HCl, pH 7.4, 0.1% BSA) for 1 h in the dark, and at 22° C. The incubation was terminated by filtration through a Whatman GF/B glass filter (Whatman International, Kent, UK) using a Brandel cell harvester. The filter was then washed rapidly four times with 3 mL of ice-cold wash buffer (5 mM Tris-HCl, 0.25 mM NaCl, 5% EtOH), and equilibrated for 1 h in scintillation vials containing 5 mL of Ultima Gold scintillation fluid before being analysed using a Liquid Scintillation Analyzer.
The results are shown in Table 2 in the column labeled “Tau IC50”.
Relative selectivity for tau compared to Aβ for the exemplified compounds was calculated using the results for the [^3H]-THK5117 tau and [^3H]-AZD2184 Aβ assays described above. The calculated results are shown in Table 2 in the column labeled “Selectivity for tau relative to Aβ”.

[2] = target: T2, Aβ(1-42) amyloid fibrils (Homo sapiens, UniProt P05067); test: ^3H-AZD2184 competition binding to Aβ(1-42) fibrils in vitro; conditions: [^3H]-AZD2184, Aβ(1-42) amyloid fibrils; average if run more than once
T2 construct: Aβ(1-42) amyloid fibrils
Method: Competition binding experiments to Aβ(1-42) amyloid fibrils were performed as previously described in Jureus, A., et al, Journal of Neurochemistry (2010), Vol. 114, pages 784-794 for the Example compounds of the invention indicated in Table 2, or the known tau specific ligand PBB3 (PBB3 was synthesized as previously described in M. Maruyama, et al, Neuron 2013, 79, 1094-1108).
The results are shown in Table 2 in the column labeled “Aβ IC50”.

T1 sequence (P10636 1-383 isoform P10636-6): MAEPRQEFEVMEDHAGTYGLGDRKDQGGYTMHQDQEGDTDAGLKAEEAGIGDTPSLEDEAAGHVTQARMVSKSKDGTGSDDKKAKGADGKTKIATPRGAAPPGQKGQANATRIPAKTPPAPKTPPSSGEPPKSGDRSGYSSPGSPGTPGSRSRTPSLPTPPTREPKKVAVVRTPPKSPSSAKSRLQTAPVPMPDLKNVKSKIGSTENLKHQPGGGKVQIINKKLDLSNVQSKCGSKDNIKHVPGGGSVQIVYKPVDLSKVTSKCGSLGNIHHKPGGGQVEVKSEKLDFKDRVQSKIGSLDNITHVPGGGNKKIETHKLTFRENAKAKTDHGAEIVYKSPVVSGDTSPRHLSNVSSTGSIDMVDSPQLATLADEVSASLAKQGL
T2 sequence (P05067 672-713): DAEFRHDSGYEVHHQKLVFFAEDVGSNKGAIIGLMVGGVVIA

| Compound | IC50 [1] | Selectivity for tau relative to Aβ [1] | IC50 [2] |
| --- | --- | --- | --- |
| FCCCCOCC1CCN(c2ccc(-c3nc4ccccc4s3)cn2)CC1 [Compound 3] | 11 nM | 3.9 | 43 nM |
| COc1ccc2nc(-c3cnc(N4CCC(CCO)CC4)nc3)sc2c1 [Compound 25] | 3 nM | 22 | 65 nM |
| N#Cc1ccc2nc(-c3cnc(N4CCC(CCO)CC4)nc3)sc2c1 [Compound 40] | 6 nM | 12 | 70 nM |
| COc1ccc2[nH]c(-c3ccc(N4CCC(CO)CC4)nc3F)cc2c1 [Compound 47] | 2 nM | 17 | 33 nM |
| COc1ccc2nc(-c3cnc(N4CCC(CCOCCOCCOCCF)CC4)nc3)sc2c1 [Compound 26] | 5 nM | 1.6 | 8 nM |
| COc1ncc2cc(-c3ccc(N4CCC(CO)CC4)nc3F)[nH]c2n1 [Compound 76, [1-(6-Fluoro-5-{2-methoxy-7H-pyrrolo[2,3-d]pyrimidin-6-yl}pyridin-2-yl)piperidin-4-yl]methanol] | 9 nM | 36 | 322 nM |
| FCCOCCOCCOC1CCN(c2ccc(-c3nc4ccccc4s3)cn2)CC1 [Compound 6] | 16 nM | 0.2 | 3 nM |
| COc1ccc2[nH]c(-c3ccc(N4CCC(C(N)=O)CC4)nc3)cc2c1 [Compound 71, 1-[5-(5-Methoxy-1H-indol-2-yl)pyridin-2-yl]piperidine-4-carboxamide] | 16 nM | 7.1 | 114 nM |
| OCCC1CCN(c2ccc(-c3cc4ccccc4o3)c(F)n2)CC1 [Compound 46] | 6 nM | 8.8 | 53 nM |
| OCC1CCN(c2ccc(-c3cc4ccccc4o3)c(F)n2)CC1 [Compound 45] | 9 nM | 4.7 | 42 nM |
| NC(=O)C1CCN(c2ccc(-c3cc4cc(O)ccc4[nH]3)c(F)n2)CC1 [Compound 66] | 21 nM | 13 | 272 nM |
| OCC1CCN(c2ncc(-c3cc4cc(OCCF)ccc4[nH]3)cn2)CC1 [Compound 72, (1-{5-[5-(2-Fluoroethoxy)-1H-indol-2-yl]pyrimidin-2-yl}piperidin-4-yl)methanol] | 7 nM | 6 | 42 nM |
| OCC1CCN(c2ncc(-c3nc4ccc(O)cc4s3)cn2)CC1 [Compound 57] | 12 nM | 25 | 302 nM |
| COC(=O)C1CCN(c2ccc(-c3cc4cc(O)ccc4[nH]3)c(F)n2)CC1 [Compound 67] | 4 nM | 8 | 32 nM |
| OCCC1CCN(c2ccc(-c3nc4ccc(O)cc4s3)cn2)CC1 [Compound 36] | 3 nM | 30 | 91 nM |
| COc1ccc2[nH]c(-c3ccc(N4CCC(C(N)=O)CC4)nc3F)cc2c1 [Compound 68] | 7 nM | 10 | 72 nM |
| OC1CCN(c2ncc(-c3cc4ccccc4o3)cn2)CC1 [Compound 32] | 43 nM | 1.5 | 66 nM |
| CCOC(=O)C1CCN(c2ccc(-c3cc4cc(O)ccc4[nH]3)c(F)n2)CC1 [Compound 65] | 2 nM | 22 | 44 nM |
| CCOC(=O)c1ccc2nc(-c3cnc(N4CCC(CCF)CC4)nc3)sc2c1 [Compound 44] | 4 nM | – | – |
| COc1ccc2nc(-c3cnc(N4CCC(CCF)CC4)nc3)cn2c1 [Compound 53] | 14 nM | 2.6 | 37 nM |
| FCCCCOC1CCN(c2ccc(-c3nc4ccccc4s3)cn2)CC1 [Compound 5] | 5 nM | 4.8 | 24 nM |
| CCOC(=O)C1CCN(c2ccc(-c3cc4ccc(OC)cc4[nH]3)c(F)n2)CC1 [Compound 63, Ethyl 1-[6-Fluoro-5-(6-methoxy-1H-indol-2-yl)pyridin-2-yl]piperidine-4-carboxylate] | 2.3 nM | – | – |
| OCC1CCN(c2ncc(-c3nc4ccc(OCCF)cc4s3)cn2)CC1 [Compound 58] | 6 nM | 6.2 | 37 nM |
| COc1ccc2nc(-c3ccc(N4CCC(CCOCCOCCOCCF)CC4)nc3)sc2c1 [Compound 22] | 4 nM | 1 | 4 nM |
| OCC1CCN(c2ccc(-c3cc4cc(OCCF)ccc4[nH]3)cn2)CC1 [Compound 77] | 14 nM | – | – |
| FCCC1CCN(c2ncc(-c3cn4ccccc4n3)cn2)CC1 [Compound 52] | 49 nM | 1.7 | 84 nM |
| COc1ccc2nc(-c3ccc(N4CCC(OCCO)CC4)nc3)sc2c1 [Compound 23] | 4 nM | 1 | 4 nM |

Now from value to compound:

| IC50 [1] | Selectivity for tau relative to Aβ [1] | IC50 [2] | Compound |
| --- | --- | --- | --- |
| 11 nM | 2.5 | 28 nM | O=C(NCCO)c1ccc2nc(-c3cnc(N4CCC(CCF)CC4)nc3)sc2c1 [Compound 60] |
| 7 nM | 4.9 | 34 nM | OCCC1CCN(c2ccc(-c3cc4ccccc4o3)cn2)CC1 [Compound 27] |
| 7 nM | 2.1 | 15 nM | OCCC1CCN(c2ccc(-c3nc4ccccc4s3)cn2)CC1 [Compound 7] |
| 22 nM | 0.4 | 9 nM | OCC1CCN(c2ccc(-c3nc4ccc(OCCF)cc4o3)cn2)CC1 [Compound 62, (1-{5-[6-(2-Fluoroethoxy)-1,3-benzoxazol-2-yl]pyridin-2-yl}piperidin-4-yl)methanol] |
| 2 nM | 0.5 | 1 nM | COc1ccc2nc(-c3ccc(N4CCC(CCF)CC4)nc3)sc2c1 [Compound 24] |
| 28 nM | 0.2 | 6 nM | FCCOCCOCCOC1CCN(c2ncc(-c3cc4ccccc4o3)cn2)CC1 [Compound 33] |
| 12 nM | 2.1 | 25 nM | FCCC1CCN(c2ncc(-c3cc4ccccc4o3)cn2)CC1 [Compound 30] |
| 10 nM | 17 | 169 nM | Oc1ccc2[nH]c(-c3cnc(N4CCC(CF)CC4)nc3)cc2c1 [Compound 69, 2-{2-[4-(Fluoromethyl)piperidin-1-yl]pyrimidin-5-yl}-1H-indol-5-ol] |
| 6 nM | 42 | 250 nM | OCCC1CCN(c2ncc(-c3nc4ccc(O)cc4s3)cn2)CC1 [Compound 38] |
| 1.5 nM | 33 | 50 nM | Oc1ccc2nc(-c3cnc(N4CCC(CCF)CC4)nc3)sc2c1 [Compound 39] |
| 5 nM | 37 | 187 nM | OCC1CCN(c2ccc(-c3cc4cc(O)ccc4[nH]3)c(F)n2)CC1 [Compound 48] |
| 10 nM | 1.5 | 15 nM | OCCC1CCN(c2ncc(-c3cc4ccccc4o3)cn2)CC1 [Compound 28] |
| 4 nM | 18 | 72 nM | NC(=O)c1ccc2nc(-c3cnc(N4CCC(CCF)CC4)nc3)sc2c1 [Compound 43] |
| 2 nM | 1.5 | 3 nM | OCC1CCN(c2ccc(-c3nc4ccc(OCCF)cc4s3)cn2)CC1 [Compound 56] |
| 5 nM | 14 | 70 nM | COc1ccc2nc(-c3ccc(N4CCC(CCO)CC4)nc3)sc2c1 [Compound 21] |
| 31 nM | – | – | NC(=O)COC1CCN(c2ccc(-c3nc4ccccc4s3)cn2)CC1 [Compound 10] |
| 100 nM | – | – | OCCC1CCN(c2ccc(-c3cc4ccccc4o3)nn2)CC1 [Compound 35] |
| 32 nM | – | – | NC(=O)COC1CCN(c2ncc(-c3cc4ccccc4o3)cn2)CC1 [Compound 34] |
